Reference: paper PMC10322960 (European Journal of Drug Metabolism and Pharmacokinetics, 2023)

How the values were obtained:
OAT3 = target: T1, OAT3 (Homo sapiens, UniProt Q8TCC7); assay: OAT3 uptake inhibition assay; assay type: in vitro ADME; details: 0.63–40 μM
T1 sequence (Q8TCC7 1-542): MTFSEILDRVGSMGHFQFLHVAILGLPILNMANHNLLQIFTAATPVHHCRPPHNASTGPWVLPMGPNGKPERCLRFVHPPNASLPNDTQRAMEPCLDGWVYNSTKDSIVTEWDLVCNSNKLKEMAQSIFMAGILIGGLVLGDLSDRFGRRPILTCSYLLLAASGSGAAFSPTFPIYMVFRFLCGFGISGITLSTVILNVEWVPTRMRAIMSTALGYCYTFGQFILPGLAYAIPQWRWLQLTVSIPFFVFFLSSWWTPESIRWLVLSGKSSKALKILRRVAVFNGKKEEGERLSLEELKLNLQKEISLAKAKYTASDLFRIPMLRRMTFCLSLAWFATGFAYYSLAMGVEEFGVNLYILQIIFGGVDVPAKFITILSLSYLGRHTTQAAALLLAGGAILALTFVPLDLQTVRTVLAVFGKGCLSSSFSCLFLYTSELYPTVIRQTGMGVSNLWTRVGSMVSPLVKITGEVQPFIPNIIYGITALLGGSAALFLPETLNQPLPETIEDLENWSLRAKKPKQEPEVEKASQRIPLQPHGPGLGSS

OCT2 [1] = target: T2, OCT2 (Homo sapiens, UniProt O15244); assay: OCT2 uptake substrate assay; assay type: in vitro ADME
T2 sequence (O15244 1-555): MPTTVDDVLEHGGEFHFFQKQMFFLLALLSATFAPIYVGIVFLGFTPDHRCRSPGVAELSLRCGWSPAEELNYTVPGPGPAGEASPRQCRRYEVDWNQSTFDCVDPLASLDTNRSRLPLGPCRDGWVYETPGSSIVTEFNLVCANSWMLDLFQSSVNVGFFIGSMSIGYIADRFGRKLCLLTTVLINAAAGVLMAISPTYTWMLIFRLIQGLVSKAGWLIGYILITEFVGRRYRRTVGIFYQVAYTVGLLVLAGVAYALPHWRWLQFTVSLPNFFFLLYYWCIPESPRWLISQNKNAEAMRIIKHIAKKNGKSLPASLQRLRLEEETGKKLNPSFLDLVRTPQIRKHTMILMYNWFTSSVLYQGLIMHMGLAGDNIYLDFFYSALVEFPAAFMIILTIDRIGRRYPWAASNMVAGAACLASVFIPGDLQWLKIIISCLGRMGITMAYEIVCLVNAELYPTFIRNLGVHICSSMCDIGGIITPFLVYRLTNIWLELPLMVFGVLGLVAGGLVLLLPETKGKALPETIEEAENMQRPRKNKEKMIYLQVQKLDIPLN

[2] = following 0.5-mg dose at steady state; not from this study, ref not given; cited from earlier work
MDR1 [3] = target: T3, MDR1 (Homo sapiens, UniProt P08183); assay: MDR1 vesicular transport inhibition assay; assay type: in vitro ADME
T3 sequence (P08183 whole entry): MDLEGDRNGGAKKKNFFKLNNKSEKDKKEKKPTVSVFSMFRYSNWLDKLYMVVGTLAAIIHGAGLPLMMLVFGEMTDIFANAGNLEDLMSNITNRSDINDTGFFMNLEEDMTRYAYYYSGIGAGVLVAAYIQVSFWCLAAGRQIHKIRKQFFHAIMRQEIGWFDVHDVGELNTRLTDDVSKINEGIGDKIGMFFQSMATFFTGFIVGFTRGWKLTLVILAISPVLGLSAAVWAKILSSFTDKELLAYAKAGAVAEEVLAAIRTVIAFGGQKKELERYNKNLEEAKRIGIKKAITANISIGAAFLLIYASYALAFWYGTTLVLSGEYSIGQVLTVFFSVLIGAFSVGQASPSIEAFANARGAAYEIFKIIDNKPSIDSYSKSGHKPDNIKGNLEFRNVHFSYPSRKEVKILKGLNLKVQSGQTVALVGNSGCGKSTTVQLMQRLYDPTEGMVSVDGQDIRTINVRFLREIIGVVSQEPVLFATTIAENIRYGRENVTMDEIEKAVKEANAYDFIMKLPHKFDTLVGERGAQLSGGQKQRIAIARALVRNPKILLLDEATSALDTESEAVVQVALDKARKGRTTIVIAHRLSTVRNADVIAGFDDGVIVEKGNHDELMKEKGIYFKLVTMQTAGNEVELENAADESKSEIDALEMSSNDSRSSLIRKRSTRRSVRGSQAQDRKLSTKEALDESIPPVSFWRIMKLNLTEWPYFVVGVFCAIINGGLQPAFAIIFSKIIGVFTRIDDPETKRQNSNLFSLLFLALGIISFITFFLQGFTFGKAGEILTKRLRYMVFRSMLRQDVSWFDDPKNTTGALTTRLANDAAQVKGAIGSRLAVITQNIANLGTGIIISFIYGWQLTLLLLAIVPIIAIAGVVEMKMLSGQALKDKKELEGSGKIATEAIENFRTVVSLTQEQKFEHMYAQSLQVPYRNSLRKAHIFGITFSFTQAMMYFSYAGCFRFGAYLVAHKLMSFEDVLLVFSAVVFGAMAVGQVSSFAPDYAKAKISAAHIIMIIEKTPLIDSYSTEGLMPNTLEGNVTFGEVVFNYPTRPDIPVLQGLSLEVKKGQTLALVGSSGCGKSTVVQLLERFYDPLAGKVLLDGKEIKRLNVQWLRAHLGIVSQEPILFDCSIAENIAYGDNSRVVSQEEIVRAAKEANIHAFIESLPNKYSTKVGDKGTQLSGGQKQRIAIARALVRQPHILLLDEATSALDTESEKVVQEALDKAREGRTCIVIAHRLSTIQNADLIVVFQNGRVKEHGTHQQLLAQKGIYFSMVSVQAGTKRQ

MATE2-K = MATE2-K (Homo sapiens, UniProt Q86VL8); assay: MATE2-K uptake substrate assay; assay type: in vitro ADME
Chain of MATE2-K (Q86VL8 1-566 isoform Q86VL8-3): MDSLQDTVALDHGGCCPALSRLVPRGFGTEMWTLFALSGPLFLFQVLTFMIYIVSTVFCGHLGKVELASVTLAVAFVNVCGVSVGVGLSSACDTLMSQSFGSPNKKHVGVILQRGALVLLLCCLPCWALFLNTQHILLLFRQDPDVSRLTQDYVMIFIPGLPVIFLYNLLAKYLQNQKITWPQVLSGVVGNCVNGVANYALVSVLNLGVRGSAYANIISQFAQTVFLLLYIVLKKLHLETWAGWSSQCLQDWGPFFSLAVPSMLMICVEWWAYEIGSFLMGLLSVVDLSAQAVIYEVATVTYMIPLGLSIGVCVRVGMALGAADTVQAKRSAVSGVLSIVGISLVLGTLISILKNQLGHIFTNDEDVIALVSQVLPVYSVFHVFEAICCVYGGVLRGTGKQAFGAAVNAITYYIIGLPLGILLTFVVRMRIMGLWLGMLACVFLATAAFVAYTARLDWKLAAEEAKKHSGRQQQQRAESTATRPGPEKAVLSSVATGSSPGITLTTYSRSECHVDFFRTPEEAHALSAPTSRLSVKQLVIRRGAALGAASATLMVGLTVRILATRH

[4] = system: CYP1A2, CYP2A6, CYP2B6, CYP2C8, CYP2C9, CYP2C19, CYP2D6, CYP2E1, and CYP4A11; assay: Recombinant CYP incubation; assay type: in vitro ADME, human; details: 3 µm ocedurenone, NADPH, 60 min
CYP2D6 = CYP2D6 (Homo sapiens, UniProt P10635); assay: In vitro P450 inhibition, recombinant CYP2D6; assay type: in vitro ADME
Chain of CYP2D6 (P10635 whole entry): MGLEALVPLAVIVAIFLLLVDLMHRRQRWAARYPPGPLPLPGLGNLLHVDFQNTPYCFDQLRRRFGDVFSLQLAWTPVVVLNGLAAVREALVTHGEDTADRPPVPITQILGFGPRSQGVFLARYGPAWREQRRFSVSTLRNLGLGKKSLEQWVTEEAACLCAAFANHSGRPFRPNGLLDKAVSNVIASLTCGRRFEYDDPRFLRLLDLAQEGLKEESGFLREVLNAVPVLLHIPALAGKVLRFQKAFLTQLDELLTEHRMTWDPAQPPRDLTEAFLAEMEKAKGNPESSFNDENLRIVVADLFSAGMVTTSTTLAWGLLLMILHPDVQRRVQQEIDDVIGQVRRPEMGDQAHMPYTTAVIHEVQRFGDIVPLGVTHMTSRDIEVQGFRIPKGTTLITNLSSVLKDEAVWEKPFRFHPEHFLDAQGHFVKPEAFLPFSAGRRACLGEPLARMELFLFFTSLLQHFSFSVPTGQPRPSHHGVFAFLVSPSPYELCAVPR

MDR1 [5] = target: T3, MDR1; assay: MDR1 monolayer substrate assay; assay type: in vitro ADME
OAT1 = target: T4, OAT1 (Homo sapiens, UniProt Q4U2R8); assay: OAT1 uptake substrate assay; assay type: in vitro ADME
T4 sequence (Q4U2R8 1-563): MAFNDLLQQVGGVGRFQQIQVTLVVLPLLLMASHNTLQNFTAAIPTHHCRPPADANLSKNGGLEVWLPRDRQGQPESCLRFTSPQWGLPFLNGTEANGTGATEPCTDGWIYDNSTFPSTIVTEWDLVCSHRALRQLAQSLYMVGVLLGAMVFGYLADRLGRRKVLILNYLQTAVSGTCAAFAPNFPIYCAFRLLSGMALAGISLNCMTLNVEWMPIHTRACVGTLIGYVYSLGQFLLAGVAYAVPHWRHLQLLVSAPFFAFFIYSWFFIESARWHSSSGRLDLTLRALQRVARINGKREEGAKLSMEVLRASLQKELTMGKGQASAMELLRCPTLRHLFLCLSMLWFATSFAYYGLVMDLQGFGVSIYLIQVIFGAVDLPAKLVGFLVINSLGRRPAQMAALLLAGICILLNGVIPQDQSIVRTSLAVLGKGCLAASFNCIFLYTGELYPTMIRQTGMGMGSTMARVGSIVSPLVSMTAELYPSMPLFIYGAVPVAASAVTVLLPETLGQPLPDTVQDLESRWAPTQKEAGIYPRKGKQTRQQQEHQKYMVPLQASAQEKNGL

BSEP = BSEP (Homo sapiens, UniProt O95342); assay: BSEP vesicular transport inhibition assay; assay type: in vitro ADME
Chain of BSEP (O95342 whole entry): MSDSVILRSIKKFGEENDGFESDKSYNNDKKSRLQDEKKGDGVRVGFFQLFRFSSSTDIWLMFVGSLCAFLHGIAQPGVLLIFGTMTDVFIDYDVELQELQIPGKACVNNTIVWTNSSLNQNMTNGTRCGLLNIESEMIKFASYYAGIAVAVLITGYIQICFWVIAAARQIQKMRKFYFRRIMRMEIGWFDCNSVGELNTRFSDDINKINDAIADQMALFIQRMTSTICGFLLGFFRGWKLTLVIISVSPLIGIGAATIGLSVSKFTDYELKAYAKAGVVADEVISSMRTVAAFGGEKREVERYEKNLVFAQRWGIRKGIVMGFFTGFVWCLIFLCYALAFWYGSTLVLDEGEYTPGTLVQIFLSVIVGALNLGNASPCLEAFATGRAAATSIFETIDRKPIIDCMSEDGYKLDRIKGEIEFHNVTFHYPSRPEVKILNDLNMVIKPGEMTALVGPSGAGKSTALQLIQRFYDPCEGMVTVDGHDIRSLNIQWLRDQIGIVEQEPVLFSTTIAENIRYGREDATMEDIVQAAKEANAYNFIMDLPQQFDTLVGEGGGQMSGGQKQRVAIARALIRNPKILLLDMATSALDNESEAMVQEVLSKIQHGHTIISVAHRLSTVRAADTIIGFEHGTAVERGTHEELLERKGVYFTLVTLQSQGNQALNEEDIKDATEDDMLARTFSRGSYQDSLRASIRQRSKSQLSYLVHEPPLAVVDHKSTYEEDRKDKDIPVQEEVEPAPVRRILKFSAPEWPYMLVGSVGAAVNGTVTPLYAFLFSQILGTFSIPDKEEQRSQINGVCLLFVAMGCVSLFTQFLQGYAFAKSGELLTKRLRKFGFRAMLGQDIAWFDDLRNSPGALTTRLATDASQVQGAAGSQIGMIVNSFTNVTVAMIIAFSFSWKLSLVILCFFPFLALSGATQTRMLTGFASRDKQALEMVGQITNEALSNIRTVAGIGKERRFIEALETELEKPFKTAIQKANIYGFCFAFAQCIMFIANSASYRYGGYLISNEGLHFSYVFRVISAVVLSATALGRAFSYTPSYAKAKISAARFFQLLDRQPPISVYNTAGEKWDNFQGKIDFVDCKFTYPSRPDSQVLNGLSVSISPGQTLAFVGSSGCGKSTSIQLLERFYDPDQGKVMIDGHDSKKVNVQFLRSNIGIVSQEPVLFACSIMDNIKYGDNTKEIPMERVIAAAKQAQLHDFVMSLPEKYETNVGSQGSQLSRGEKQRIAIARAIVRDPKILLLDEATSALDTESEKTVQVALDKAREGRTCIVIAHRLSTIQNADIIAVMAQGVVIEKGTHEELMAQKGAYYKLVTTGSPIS

[6] = 0.5 to 30 mg administered orally; cited from earlier work
OCT2 [7] = target: T2, OCT2; assay: OCT2 uptake inhibition assay; assay type: in vitro ADME; details: 0.63–40 μM
[8] = transporter-expressing vs control cells, 0.04–40 µm
[9] = first vesicular transport run, 40 µM

N#Cc1ccc(N2N=C3c4ccc(C(=O)N5CCC(O)CC5)nc4CC[C@@H]3[C@@H]2C2CCCC2)cc1Cl [Ocedurenone, ocedurenone]
interaction with human OAT3 transporter (inhibition) (OAT3): No interaction | Substrate, OCT2 UPT (OCT2 [1]): not likely to be a substrate | Maximum fold accumulation, OCT2 UPT (OCT2 [1]; [8]): 1.0 | plasma Cmax at steady state [2]: 32 to 40 ng/mL | inhibition of MDR1 at 40 µM (MDR1 [3]; [9]): 99% | IC50 (MDR1 [3]; read-out: Inhibition results (IC50), MDR1 VT, probe NMQ (1 µm)): 2500 nM | maximum inhibition of MDR1-mediated transport (MDR1 [3]; repeat with 7 concentrations): 100% | Substrate, MATE2-K UPT (MATE2-K): not likely to be a substrate | Maximum fold accumulation, MATE2-K UPT (MATE2-K; [8]): < 2 | metabolism in incubations with other recombinant CYP isoenzymes [4]: minor metabolism | percent remaining activity of CYP2D6 (CYP2D6; ocedurenone at 200 μM): 87.8% | IC50 (CYP2D6; read-out: IC50 CYP2D6, recombinant CYP): > 200000 nM | inhibition category CYP2D6 (CYP2D6; recombinant enzyme): little or no inhibition | Substrate, MDR1 ML (MDR1 [5]): likely a substrate | Substrate, OAT1 UPT (OAT1): not likely to be a substrate | Maximum fold accumulation, OAT1 UPT (OAT1; [8]): 1.1 | inhibition of BSEP at 40 µM (BSEP; [9]): 79% | maximum inhibition of BSEP-mediated transport (BSEP; repeat with 7 concentrations): 71% | safety and tolerability, single ascending dose [6]: safe and well-tolerated | interaction with human OCT2 transporter (inhibition) (OCT2 [7]): No interaction
